The record followed here is PubChem BioAssay (NCI).

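Interpolation was linear, between the two tested concentrations surrounding the appropriate level; five concentrations were tested over 48 hours in 96-well plates. The concentration for full growth arrest is given as TGI.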

Some test systems named below: IGROV1 ovarian; NCI/ADR-RES ovarian; NCI-H23 lung; HOP-92 NSCLC; HCT-15 colon; MCF7 breast; A498 renal; BT-549 breast; RPMI-8226 leukemia; UO-31 renal; KM12 colon; PC-3 prostate; SW-620 colon; SK-OV-3 ovarian; MDA-MB-435; SN12C renal; MDA-N; OVCAR-4 ovarian; SK-MEL-2 melanoma; NCI-H522 lung.
What all share (assay): NCI tumour cell line growth inhibition, 48 h

`COc1cc(COC(=O)N2CCCCC2C(=O)O)c([N+](=O)[O-])cc1OC` (stereo unspecified): the TGI with IGROV1 ovarian, in the experiment with NCI/ADR-RES ovarian, in the experiment with NCI-H23 lung, in the experiment on HOP-92 NSCLC, in the experiment with HCT-15 colon and with MCF7 breast was more than 100 µM each time. The TGI in the experiment with A498 renal, in the experiment with BT-549 breast, in the experiment with RPMI-8226 leukemia, in the experiment on UO-31 renal, in the experiment with KM12 colon and in the experiment on PC-3 prostate was more than 100 µM each time. Also, the TGI with SW-620 colon, in the experiment on SK-OV-3 ovarian, with MDA-MB-435, in the experiment on SN12C renal and in the experiment with MDA-N was more than 100 µM throughout.
Turning to `CCOC(=O)C1(Cc2ccccc2)Cc2cc3c(cc2C1=O)CCC3` (stereo unspecified), the TGI in the experiment with IGROV1 ovarian, with NCI/ADR-RES ovarian, in the experiment on NCI-H23 lung, in the experiment on HOP-92 NSCLC, with HCT-15 colon and in the experiment with OVCAR-4 ovarian was more than 100 µM in each case. The TGI in the experiment on MCF7 breast, with A498 renal, with BT-549 breast, in the experiment on SK-MEL-2 melanoma, in the experiment on RPMI-8226 leukemia and in the experiment with UO-31 renal was more than 100 µM throughout. For the same compound, the TGI with KM12 colon, in the experiment on PC-3 prostate, in the experiment on SW-620 colon, in the experiment with SK-OV-3 ovarian, in the experiment with MDA-MB-435 and with SN12C renal was more than 100 µM throughout. The compound further registered a TGI with MDA-N of more than 100 µM.
In the case of `COc1ccc(/C=C/C(=O)c2nc3ccccc3[nH]2)cc1`, the TGI was 25.9 µM in the experiment with IGROV1 ovarian; 53.5 µM in the experiment on NCI/ADR-RES ovarian; 35.6 µM in the experiment with HOP-92 NSCLC; more than 40.5 µM with HCT-15 colon; 60.1 µM with OVCAR-4 ovarian; more than 81 µM in the experiment with MCF7 breast. Besides, the TGI in the experiment on A498 renal was more than 82.7 µM; with BT-549 breast it was 55.2 µM; in the experiment with SK-MEL-2 melanoma it was more than 100 µM; in the experiment with RPMI-8226 leukemia, more than 29.8 µM; in the experiment with NCI-H522 lung, 32.5 µM; in the experiment on UO-31 renal it was 34.6 µM. For the same compound, the TGI with KM12 colon is 19.8 µM; in the experiment on PC-3 prostate, 87.6 µM; in the experiment on SW-620 colon it was 49.1 µM; in the experiment with SK-OV-3 ovarian it was 86.1 µM; in the experiment with MDA-MB-435, more than 100 µM; in the experiment on SN12C renal, 73.9 µM. In addition, the TGI in the experiment on MDA-N worked out at 32.9 µM.
`O=c1[nH]c(=O)n(C2CC(O)C(COP(=O)(O)OC3CC(n4cc(F)c(=O)[nH]c4=O)OC3COP(=O)(O)OC3CC(n4cc(F)c(=O)[nH]c4=O)OC3COP(=O)(O)OC3CC(n4cc(F)c(=O)[nH]c4=O)OC3COP(=O)(O)OC3CC(n4cc(F)c(=O)[nH]c4=O)OC3COP(=O)(O)OC3CC(n4cc(F)c(=O)[nH]c4=O)OC3COP(=O)(O)OC3CC(n4cc(F)c(=O)[nH]c4=O)OC3COP(=O)(O)OC3CC(n4cc(F)c(=O)[nH]c4=O)OC3COP(=O)(O)OC3CC(n4cc(F)c(=O)[nH]c4=O)OC3COP(=O)(O)OC3CC(n4cc(F)c(=O)[nH]c4=O)OC3CO)O2)cc1F` (stereo unspecified): the TGI in the experiment with IGROV1 ovarian, with NCI/ADR-RES ovarian, with NCI-H23 lung, in the experiment on HOP-92 NSCLC, with HCT-15 colon and in the experiment on OVCAR-4 ovarian was more than 50 µM throughout. The TGI in the experiment with MCF7 breast is more than 50 µM; with A498 renal, 1.12 µM; in the experiment on BT-549 breast, more than 50 µM; in the experiment with SK-MEL-2 melanoma it was more than 50 µM; with RPMI-8226 leukemia, more than 50 µM; in the experiment with UO-31 renal, more than 50 µM. The TGI in the experiment on KM12 colon, with PC-3 prostate, in the experiment on SW-620 colon, with SK-OV-3 ovarian, in the experiment with MDA-MB-435 and in the experiment with SN12C renal was more than 50 µM in each case. This compound returned a TGI in the experiment with MDA-N of more than 50 µM.
Take `CCCCOP(=O)(OCCCC)/C(C#N)=C/c1ccc(C)o1`: the TGI in the experiment on IGROV1 ovarian is more than 100 µM; in the experiment with NCI/ADR-RES ovarian, 64.4 µM; in the experiment with NCI-H23 lung it was 92.3 µM; in the experiment with HOP-92 NSCLC, 79.6 µM; in the experiment on HCT-15 colon, more than 100 µM; with OVCAR-4 ovarian, more than 100 µM. For the same compound, the TGI in the experiment on MCF7 breast is more than 100 µM; in the experiment with A498 renal, more than 100 µM; with BT-549 breast it was 43 µM; in the experiment with SK-MEL-2 melanoma, 77.3 µM; in the experiment with RPMI-8226 leukemia it was more than 100 µM; in the experiment with NCI-H522 lung, more than 100 µM. Besides, the TGI in the experiment on KM12 colon was more than 100 µM; in the experiment with PC-3 prostate, 51.4 µM; in the experiment on SW-620 colon, more than 100 µM; in the experiment on SK-OV-3 ovarian, more than 100 µM; in the experiment with MDA-MB-435, 95.9 µM; with SN12C renal it was more than 100 µM. In addition, in the experiment with MDA-N, the TGI came out at 95.5 µM.
Regarding `O=C(Cn1c(C(=O)/C=C/c2ccco2)nc2ccccc21)c1ccc(Cl)cc1`, the TGI with IGROV1 ovarian was 57.1 µM; with NCI/ADR-RES ovarian, 30.4 µM; with NCI-H23 lung it was 28.1 µM; in the experiment on HOP-92 NSCLC, more than 100 µM; in the experiment on HCT-15 colon, 99.4 µM; in the experiment with OVCAR-4 ovarian, 65 µM. The TGI came out at 76.4 µM with MCF7 breast; 44.4 µM in the experiment with A498 renal; 42.9 µM in the experiment on BT-549 breast; 27.8 µM in the experiment on SK-MEL-2 melanoma; 32.9 µM in the experiment with RPMI-8226 leukemia; 94.3 µM in the experiment with UO-31 renal. Further, the TGI in the experiment on KM12 colon was 47.1 µM; with PC-3 prostate, 44.2 µM; in the experiment with SW-620 colon, more than 100 µM; with SK-OV-3 ovarian, more than 100 µM; with MDA-MB-435 it was 32.7 µM; in the experiment on SN12C renal, 61.5 µM. The same compound showed a TGI in the experiment on MDA-N of 50.2 µM.
In the case of `Cc1nc2c(=O)[nH]c3ccccc3c2o1`, the TGI with IGROV1 ovarian, in the experiment on NCI/ADR-RES ovarian, in the experiment with NCI-H23 lung, in the experiment with HOP-92 NSCLC, with HCT-15 colon and in the experiment on OVCAR-4 ovarian was more than 100 µM in each case. For the same compound, the TGI in the experiment on MCF7 breast, in the experiment on A498 renal, in the experiment with BT-549 breast, with SK-MEL-2 melanoma, in the experiment with RPMI-8226 leukemia and in the experiment on UO-31 renal was more than 100 µM throughout. Besides, the TGI with KM12 colon, in the experiment with PC-3 prostate, with SW-620 colon, in the experiment with SK-OV-3 ovarian, in the experiment on MDA-MB-435 and in the experiment on SN12C renal was more than 100 µM in each case. For the same compound, in the experiment with MDA-N, the TGI was more than 100 µM.
